The results in this text go back to ChEMBL document CHEMBL1201862, “PubChem BioAssay data set” (2004).

Test [1] deals with T1, Apoptotic protease-activating factor 1 (Homo sapiens, UniProt O14727).
T1 sequence (O14727 whole entry): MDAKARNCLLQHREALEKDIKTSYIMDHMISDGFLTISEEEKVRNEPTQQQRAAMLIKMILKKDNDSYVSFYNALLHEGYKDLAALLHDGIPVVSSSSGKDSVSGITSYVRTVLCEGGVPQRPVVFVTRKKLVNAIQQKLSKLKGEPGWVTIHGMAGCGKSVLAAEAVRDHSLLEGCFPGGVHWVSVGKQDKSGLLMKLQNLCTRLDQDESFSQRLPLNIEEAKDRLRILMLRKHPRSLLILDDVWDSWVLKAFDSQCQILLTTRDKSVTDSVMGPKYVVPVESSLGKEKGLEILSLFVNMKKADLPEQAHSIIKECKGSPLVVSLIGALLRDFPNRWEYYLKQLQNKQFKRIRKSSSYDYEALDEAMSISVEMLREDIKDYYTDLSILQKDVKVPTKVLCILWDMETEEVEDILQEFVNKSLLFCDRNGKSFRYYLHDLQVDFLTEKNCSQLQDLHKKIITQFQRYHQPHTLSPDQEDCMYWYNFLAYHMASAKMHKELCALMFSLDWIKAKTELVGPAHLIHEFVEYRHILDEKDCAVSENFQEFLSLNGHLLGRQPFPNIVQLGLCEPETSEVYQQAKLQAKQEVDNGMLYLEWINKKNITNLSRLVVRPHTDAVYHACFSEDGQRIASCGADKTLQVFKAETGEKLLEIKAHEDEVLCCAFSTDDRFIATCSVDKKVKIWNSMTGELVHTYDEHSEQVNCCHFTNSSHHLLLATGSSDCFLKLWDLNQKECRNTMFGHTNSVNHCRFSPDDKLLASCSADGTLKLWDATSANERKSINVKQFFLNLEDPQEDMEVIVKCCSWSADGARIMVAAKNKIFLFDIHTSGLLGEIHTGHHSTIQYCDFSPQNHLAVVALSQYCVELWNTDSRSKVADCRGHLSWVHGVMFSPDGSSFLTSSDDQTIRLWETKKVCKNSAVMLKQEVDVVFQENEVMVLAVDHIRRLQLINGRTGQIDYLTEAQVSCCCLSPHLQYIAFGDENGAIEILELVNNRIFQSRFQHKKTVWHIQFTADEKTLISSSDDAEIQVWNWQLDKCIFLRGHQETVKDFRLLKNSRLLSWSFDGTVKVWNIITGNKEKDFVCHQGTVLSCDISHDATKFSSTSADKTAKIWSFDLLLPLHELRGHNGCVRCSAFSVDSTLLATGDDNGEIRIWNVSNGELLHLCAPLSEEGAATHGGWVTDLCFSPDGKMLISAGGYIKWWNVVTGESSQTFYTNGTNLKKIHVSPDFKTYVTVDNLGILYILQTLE
The test is classed as functional.

Test [2] concerns the target T2, Histone-lysine N-methyltransferase NSD2 (Homo sapiens, UniProt O96028).
T2 sequence (O96028 whole entry): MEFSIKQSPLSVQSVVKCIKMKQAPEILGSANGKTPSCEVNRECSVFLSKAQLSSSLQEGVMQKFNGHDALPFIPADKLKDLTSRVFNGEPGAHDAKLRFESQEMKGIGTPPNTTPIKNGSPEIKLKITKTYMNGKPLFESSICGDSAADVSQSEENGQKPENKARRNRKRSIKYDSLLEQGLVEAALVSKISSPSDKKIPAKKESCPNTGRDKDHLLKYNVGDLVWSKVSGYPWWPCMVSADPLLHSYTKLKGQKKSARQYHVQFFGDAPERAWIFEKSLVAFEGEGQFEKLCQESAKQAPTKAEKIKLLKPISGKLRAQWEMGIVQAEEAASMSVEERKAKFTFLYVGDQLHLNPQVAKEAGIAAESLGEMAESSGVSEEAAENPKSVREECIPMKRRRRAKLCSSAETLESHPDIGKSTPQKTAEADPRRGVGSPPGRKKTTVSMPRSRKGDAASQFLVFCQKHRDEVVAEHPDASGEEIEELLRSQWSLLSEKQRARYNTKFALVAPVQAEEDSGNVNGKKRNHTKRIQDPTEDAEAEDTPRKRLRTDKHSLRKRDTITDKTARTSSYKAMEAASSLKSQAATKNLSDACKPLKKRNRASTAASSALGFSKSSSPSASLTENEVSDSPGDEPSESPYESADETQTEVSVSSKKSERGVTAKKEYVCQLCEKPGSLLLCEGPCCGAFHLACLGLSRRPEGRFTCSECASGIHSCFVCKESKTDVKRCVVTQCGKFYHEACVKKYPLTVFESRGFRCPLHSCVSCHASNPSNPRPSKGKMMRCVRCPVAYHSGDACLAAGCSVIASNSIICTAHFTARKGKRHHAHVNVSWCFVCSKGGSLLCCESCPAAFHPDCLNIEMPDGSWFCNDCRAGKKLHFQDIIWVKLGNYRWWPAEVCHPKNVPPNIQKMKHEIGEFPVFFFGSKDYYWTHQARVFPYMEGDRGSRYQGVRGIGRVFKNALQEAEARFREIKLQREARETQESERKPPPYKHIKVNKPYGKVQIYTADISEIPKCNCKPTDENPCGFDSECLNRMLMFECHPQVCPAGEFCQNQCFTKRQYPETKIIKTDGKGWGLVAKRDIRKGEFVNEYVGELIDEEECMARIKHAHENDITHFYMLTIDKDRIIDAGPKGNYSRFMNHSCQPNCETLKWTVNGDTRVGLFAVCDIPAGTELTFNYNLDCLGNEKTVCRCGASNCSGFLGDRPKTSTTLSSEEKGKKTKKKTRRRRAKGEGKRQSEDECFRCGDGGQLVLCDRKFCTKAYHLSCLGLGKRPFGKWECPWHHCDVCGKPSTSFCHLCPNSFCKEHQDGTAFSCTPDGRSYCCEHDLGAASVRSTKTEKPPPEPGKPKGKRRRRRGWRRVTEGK
The test is classed as biochemical.

For the next test, the target named is Nonstructural protein 1 (Influenza A virus, UniProt Q194T2). Format: functional, Influenza A virus (A/California/07/2009(H1N1)).
Nonstructural protein 1, sequence (Q194T2 whole entry): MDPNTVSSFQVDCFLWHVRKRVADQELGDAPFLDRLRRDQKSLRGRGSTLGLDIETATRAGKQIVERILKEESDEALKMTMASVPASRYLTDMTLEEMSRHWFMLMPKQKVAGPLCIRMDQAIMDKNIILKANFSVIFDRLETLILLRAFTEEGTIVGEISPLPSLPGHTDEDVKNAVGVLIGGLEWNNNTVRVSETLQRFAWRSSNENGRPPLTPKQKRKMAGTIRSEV
Test [3] deals with T3, Insulin-degrading enzyme (Homo sapiens, UniProt P14735).
T3 sequence (P14735 whole entry): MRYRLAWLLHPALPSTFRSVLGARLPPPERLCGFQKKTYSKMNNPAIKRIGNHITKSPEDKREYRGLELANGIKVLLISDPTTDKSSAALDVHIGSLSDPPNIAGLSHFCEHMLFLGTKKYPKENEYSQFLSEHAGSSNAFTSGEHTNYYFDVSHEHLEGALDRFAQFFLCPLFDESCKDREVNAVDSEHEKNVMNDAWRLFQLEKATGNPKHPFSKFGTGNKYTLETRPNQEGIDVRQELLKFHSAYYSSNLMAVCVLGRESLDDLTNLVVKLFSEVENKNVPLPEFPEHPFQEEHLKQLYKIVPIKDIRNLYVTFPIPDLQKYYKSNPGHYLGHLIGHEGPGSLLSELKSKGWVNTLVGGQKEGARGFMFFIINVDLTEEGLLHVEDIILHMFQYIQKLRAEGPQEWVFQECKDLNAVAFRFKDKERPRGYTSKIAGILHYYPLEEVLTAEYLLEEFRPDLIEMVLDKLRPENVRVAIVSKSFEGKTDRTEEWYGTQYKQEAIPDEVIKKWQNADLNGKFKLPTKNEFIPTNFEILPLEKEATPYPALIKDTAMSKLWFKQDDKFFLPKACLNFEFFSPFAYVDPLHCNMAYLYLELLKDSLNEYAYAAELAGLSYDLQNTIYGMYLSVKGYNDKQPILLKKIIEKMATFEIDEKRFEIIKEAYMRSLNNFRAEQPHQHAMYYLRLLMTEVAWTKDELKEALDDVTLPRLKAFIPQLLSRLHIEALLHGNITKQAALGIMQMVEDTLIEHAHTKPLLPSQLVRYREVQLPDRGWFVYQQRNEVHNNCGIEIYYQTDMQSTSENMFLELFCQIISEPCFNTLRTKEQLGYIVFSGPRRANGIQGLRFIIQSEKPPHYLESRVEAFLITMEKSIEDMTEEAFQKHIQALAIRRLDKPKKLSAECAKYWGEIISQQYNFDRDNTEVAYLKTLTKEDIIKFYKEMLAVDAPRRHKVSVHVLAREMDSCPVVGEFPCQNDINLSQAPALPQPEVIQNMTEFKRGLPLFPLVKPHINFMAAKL
The experiment in a line: activators of endogenous IDE in HEK cells, dose response, cell-based, fluorescence polarization (AID 588439). Format: functional. For orientation: In fluorescence polarisation assays a small probe gives low polarisation when free and higher when bound to something large.

Test [4] addresses T3, Insulin-degrading enzyme. The experiment in a line: activators of recombinant IDE enzyme, dose response, counter-screen for IDE activator project, biochemical, fluorescence polarization (AID 588681). A general note: The purpose of a counterscreen is to sort out artefacts and off-target activity.
Test [5] deals with Ras and Rab interactor 1/Tyrosine-protein kinase ABL1 (Homo sapiens, UniProt P00519+Q13671). Format: functional.
Ras and Rab interactor 1/Tyrosine-protein kinase ABL1, sequence (P00519 whole entry, the tested form may be a part): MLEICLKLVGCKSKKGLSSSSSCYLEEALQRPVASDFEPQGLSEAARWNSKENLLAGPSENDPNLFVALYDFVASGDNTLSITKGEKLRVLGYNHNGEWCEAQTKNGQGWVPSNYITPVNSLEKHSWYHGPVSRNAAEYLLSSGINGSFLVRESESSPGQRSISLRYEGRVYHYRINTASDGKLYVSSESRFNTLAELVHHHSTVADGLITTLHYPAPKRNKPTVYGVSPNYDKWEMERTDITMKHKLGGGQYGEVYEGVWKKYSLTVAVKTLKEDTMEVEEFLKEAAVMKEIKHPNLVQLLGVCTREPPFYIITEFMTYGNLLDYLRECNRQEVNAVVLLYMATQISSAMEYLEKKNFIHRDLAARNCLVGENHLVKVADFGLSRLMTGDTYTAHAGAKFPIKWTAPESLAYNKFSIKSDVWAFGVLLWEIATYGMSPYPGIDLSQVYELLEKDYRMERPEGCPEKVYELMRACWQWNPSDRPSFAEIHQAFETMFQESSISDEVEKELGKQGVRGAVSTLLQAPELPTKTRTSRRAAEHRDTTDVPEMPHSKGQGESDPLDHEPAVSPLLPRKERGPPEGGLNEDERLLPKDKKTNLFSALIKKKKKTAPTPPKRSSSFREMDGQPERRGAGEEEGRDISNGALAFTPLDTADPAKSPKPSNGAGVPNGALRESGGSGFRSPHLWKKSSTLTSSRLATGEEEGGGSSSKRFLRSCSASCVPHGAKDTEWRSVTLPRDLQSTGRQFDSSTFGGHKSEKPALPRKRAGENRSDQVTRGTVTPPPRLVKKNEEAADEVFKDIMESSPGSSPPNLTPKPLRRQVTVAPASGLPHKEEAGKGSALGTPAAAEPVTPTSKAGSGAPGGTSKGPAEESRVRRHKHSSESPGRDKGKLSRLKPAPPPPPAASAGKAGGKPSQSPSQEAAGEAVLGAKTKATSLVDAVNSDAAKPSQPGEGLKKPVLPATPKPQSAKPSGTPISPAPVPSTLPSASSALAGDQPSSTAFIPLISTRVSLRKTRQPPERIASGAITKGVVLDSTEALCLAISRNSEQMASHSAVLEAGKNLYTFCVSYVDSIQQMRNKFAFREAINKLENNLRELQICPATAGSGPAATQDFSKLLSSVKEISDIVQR
Ras and Rab interactor 1/Tyrosine-protein kinase ABL1, sequence (Q13671 whole entry, the tested form may be a part): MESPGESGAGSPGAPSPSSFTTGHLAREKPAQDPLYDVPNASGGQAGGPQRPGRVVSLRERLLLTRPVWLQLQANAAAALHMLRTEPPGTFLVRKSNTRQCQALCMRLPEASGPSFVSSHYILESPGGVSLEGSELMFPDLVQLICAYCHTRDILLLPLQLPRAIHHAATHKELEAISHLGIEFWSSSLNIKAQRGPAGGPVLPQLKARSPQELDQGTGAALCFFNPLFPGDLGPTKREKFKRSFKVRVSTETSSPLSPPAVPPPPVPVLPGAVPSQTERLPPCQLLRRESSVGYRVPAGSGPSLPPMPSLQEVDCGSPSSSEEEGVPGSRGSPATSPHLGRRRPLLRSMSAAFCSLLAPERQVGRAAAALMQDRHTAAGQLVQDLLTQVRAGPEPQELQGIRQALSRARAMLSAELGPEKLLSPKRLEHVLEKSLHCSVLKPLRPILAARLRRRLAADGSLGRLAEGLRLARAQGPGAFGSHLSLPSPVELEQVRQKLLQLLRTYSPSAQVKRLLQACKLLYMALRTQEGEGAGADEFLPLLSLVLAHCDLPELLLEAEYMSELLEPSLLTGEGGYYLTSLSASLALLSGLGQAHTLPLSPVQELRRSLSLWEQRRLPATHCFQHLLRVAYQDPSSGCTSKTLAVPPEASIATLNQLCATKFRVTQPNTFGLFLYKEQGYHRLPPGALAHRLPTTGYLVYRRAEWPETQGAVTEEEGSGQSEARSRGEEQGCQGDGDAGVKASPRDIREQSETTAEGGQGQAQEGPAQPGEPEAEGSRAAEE
A further test relates to CHO. The experiment in a line: cytotoxicity in TLR9-MyD88 CHO cells, dose response, cytotoxicity control for TLR9-MyD88 binding inhibitor project, cell-based, luminescence (AID 588339).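 Further: CHO cells stably coexpressing TLR9 and MyD88 fusions from primary screen; compound exposure lasted 48 hours before viability readout.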 The following applies: Cricetulus griseus. Format: functional, hamster.
A further test has as its target Beta Lactamase (Pseudomonas aeruginosa, UniProt Q932Y6). The experiment in a line: beta-lactamase reporter inhibitor potency, dose response, artefact control for TLR9-MyD88 binding inhibitor project, BLA reporter cells, FRET fluorescence (AID 588341).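 Further: cell based assay in CHO-K1 cells stably expressing beta-lactamase.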 The test is classed as cell-based.
The nature of test [6]: Luminescence Cell-Based Dose Confirmation HTS to Identify Inhibitors of Platelet Dense Granule Release. [Related pubchem assays: 1663 (Primary HTS), 1678 (Summary of Project)]. Format: functional.
The target in test [7] is Endoplasmic reticulum aminopeptidase 1 (Homo sapiens, UniProt Q9NZ08). The experiment in a line: ERAP1 aminopeptidase inhibitors, dose response, biochemical, cherry-pick, set 2, plate reader (AID 743314).
Endoplasmic reticulum aminopeptidase 1, sequence (Q9NZ08 whole entry): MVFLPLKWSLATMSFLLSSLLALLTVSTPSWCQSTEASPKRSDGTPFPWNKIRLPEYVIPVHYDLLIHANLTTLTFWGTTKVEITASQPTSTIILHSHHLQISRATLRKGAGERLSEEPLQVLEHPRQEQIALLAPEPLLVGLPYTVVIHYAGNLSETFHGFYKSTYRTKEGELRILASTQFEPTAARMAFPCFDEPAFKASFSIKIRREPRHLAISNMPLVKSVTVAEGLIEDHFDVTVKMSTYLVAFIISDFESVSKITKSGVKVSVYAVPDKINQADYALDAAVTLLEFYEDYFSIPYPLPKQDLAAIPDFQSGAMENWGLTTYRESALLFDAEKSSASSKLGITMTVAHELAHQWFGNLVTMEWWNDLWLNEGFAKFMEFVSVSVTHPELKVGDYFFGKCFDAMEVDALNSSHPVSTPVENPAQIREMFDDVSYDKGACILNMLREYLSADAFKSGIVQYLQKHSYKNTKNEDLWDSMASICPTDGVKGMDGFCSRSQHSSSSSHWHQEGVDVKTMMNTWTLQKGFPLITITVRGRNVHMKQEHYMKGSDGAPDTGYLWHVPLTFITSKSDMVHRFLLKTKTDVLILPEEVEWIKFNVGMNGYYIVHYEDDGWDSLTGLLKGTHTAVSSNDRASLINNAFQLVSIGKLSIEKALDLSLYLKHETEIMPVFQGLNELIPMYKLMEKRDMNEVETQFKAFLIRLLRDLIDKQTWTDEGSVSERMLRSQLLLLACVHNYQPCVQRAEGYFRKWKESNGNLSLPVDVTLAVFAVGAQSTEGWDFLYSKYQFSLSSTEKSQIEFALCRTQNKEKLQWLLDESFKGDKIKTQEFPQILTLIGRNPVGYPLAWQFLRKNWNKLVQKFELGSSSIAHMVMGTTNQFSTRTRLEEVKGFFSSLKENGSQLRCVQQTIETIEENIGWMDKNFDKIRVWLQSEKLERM
In test [8] the target is Luciferin 4-monooxygenase (Photinus pyralis, UniProt P08659). The experiment in a line: firefly luciferase enzyme inhibitors, dose response, biochemical, luminescence (AID 1891).
Luciferin 4-monooxygenase, sequence (P08659 whole entry): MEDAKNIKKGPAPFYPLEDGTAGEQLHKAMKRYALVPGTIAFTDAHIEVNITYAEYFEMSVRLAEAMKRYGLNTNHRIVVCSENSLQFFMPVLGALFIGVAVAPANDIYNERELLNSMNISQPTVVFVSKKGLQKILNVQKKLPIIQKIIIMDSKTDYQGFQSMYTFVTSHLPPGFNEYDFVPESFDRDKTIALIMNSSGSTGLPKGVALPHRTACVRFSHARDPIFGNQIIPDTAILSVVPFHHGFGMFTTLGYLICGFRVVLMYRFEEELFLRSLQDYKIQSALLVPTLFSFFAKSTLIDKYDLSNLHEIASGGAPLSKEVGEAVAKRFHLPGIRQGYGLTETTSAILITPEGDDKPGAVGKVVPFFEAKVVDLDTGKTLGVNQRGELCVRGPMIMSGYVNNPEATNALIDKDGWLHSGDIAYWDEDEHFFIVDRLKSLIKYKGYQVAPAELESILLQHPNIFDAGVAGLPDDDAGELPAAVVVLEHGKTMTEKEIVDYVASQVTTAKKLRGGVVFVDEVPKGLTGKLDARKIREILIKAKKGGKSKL

Calls of active or inactive are those of the source. A value given as a limit tells only on which side of the number the result lay.

Beta Lactamase, sequence (Q932Y6 whole entry): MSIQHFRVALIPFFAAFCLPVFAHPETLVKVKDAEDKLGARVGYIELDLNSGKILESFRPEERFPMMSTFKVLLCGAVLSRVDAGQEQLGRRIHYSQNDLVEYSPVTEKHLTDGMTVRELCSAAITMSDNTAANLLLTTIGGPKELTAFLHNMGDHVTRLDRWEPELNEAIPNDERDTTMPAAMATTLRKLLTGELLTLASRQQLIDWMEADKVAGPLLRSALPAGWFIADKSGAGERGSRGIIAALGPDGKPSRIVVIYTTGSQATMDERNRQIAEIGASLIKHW

As for `CCN(CC(=O)Nc1c(F)cccc1F)C(=O)Cc1ccsc1`, the IC50 in [1] is > 100 µM (inactive).

`Cc1[nH]c(=O)[nH]c1C(=O)CCCCC(=O)O`: the AC50 in test [2] was 10.2 µM (active). Moreover, the values for the IC50 (on Nonstructural protein 1; in test [5]) were 2.14 µM (active) and 0.0174 µM (active), respectively. Also, the EC50 at Insulin-degrading enzyme [3] is 12.2 µM (inactive); on Insulin-degrading enzyme [4], 16.9 µM (inactive).

For the molecule `CC(=O)Oc1cccc(N2C(=O)c3cccc4c([N+](=O)[O-])ccc(c34)C2=O)c1`, the values for the concentration for half-maximal inhibition (IC50) in the test on CHO and on Beta Lactamase were 5.26 µM (active) and 4.5 µM (active), respectively.

Turning to `COc1ccc(-c2cc3ccc(O)cc3oc2=O)cc1OC`, the EC50 is 0.335 µM (active) in test [6] and 1.23 µM (active) in test [8]. Further, the IC50 in the test with CHO is > 49.8 µM (inactive); on Beta Lactamase, 5.23 µM (active). In addition, the AC50 in test [7] is 3.21 µM (active).

A word on the IC50: it is the concentration needed to halve the response being measured. Broadly, the AC50 is the concentration giving half of the maximal activity seen. Usually EC50 stands for the concentration giving half of the maximal effect.
